For one series, the target named is Thrombin (Homo sapiens (Human), UniProt P00734). The series is described as follows: Determination of related protease inhibition: Thrombin (fluorogenic substrate at Km). The class given is biochemical. The note with it: 25° C. In outline: (§1)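 The enzyme from human source is assayed in the presence of various test compound concentrations, with substrate held at its Km. Accumulating fluorescence is tracked for 5 min at 25 °C, and the concentration halving uninhibited activity is reported as IC50.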

A further series addresses Trypsin. The series is described as follows: Determination of related protease inhibition: Trypsin (fluorogenic substrate at Km). Type of series: biochemical, human. To be noted: 25° C. The procedure:
(§2) Determination of Related Protease Inhibition
(§3) In vitro inhibition of related proteases was determined using an ([…] assay based on standard literature methods (see e.g. Shori et al., Biochem. Pharmacol., 1992, 43, 1209; Bouckaert et al., European Journal of Medicinal Chemistry 110 (2016) 181). Human serine protease enzymes Plasma Kallikrein, KLK1, FXa, Plasmin, Thrombin and Trypsin were assayed for enzymatic activity using an appropriate fluorogenic substrate at Km concentration, FXIa at fixed substrate concentration of 100 μM, and various concentrations of the test compound. Protease activity was measured by monitoring the accumulation of liberated fluorescence from the substrate over […]. The linear rate of fluorescence increase per minute was expressed as percentage (%) activity. IC50 values were calculated as the concentration of inhibitor giving 50% inhibition of the uninhibited enzyme activity (100%).

In the next series the target is Human Factor XIIa (Homo sapiens (Human), UniProt P00748). The series is described as follows: Determination of FXIIa inhibition (fluorogenic substrate H-DPro-Phe-Arg-AFC, IC50 assay). Type of series: biochemical. The note with it: substrate H-DPro-Phe-Arg-AFC at Km, 25° C.; class scale A-G. In outline: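 Human FXIIa incubated at 25° C with fluorogenic substrate H-DPro-Phe-Arg-AFC at its Km concentration and varying compound concentrations. Fluorescence release monitored over 5 min at 25° C; linear rate expressed as % of uninhibited activity to derive IC50.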

The target of the next series is Plasmin (Homo sapiens (Human), UniProt P00747). The series is described as follows: Determination of related protease inhibition: Plasmin (fluorogenic substrate at Km). The class given is biochemical. The note with it: 25° C. The procedure: as §2, §3
A further series addresses FXa (Homo sapiens (Human), UniProt P00742). The series is described as follows: Determination of related protease inhibition: FXa (fluorogenic substrate at Km). The class given is biochemical. The note with it: 25° C. In outline: as §1
Series [1] in a line: Pharmacokinetics following a single intravenous dose and a single oral dose in male Sprague-Dawley rats (oral bioavailability, half-life). Type of series: in vivo. To be noted: rat, plasma, 10% DMSO/10% Cremophor EL/80% SWFI; for bioavailability: read-out: F % (oral bioavailability). Here is the method: Pharmacokinetic studies of the compounds in Table 16 were performed to assess the pharmacokinetics following a single intravenous dose and a single oral dose in male Sprague-Dawley rats. Two rats were given a single intravenous dose of 1 mL/kg of a nominal 1 mg/mL (1 mg/kg) composition of test compound in 10% DMSO/10% Cremophor EL/80% SWFI vehicle. Example 2191 was dosed at 1 mL/kg of a nominal 2 mg/mL (2 mg/kg) using the same vehicle.
Two rats were given a single oral dose of 5 mL/kg of a nominal 1 mg/mL (5 mg/kg) composition of test compound in 10% DMSO/10% Cremophor EL/80% SWFI vehicle. Example 2191 was dosed at 5 mL/kg of a nominal 2 mg/mL (10 mg/kg) using the same vehicle.
Following intravenous dosing, blood samples were collected over a period of 12 h. Sample times were 2, 5, 15 and 30 min then 1, 2, 4, 6, and 12 h. Following oral dosing, blood samples were collected over a period of 24 h. Sample times were 5, 15 and 30 min then 1, 2, 4, 6, 8, 12 and 24 h.
Following collection, blood samples were centrifuged and the plasma fraction analysed for concentration of test compound by LCMS. Oral bioavailability and half-life calculations from these studies were obtained using Phoenix WinNonlin (v8.0) and are shown below: […]

A further series addresses Plasma Kallikrein (Homo sapiens (Human), UniProt P03952). The series is described as follows: Determination of related protease inhibition: Plasma Kallikrein (fluorogenic substrate at Km). The class given is biochemical. To be noted: 25° C., read-out: IC50 (human PKal). In outline: as §1
The next series concerns the target KLK1 (Homo sapiens (Human), UniProt P06870). The series is described as follows: Determination of related protease inhibition: KLK1 (fluorogenic substrate at Km). To be noted: 25° C. The class given is biochemical. In outline:
as §1

The target in the next series is FXIa (Homo sapiens (Human), UniProt P03951). The series is described as follows: Determination of related protease inhibition: FXIa (fixed substrate concentration of 100 μM). The class given is biochemical. To be noted: 25° C. Here is the method: as §2, §3

This passage reports IC50, half-life and bioavailability results from patent publication US20240059691A1 (KALVISTA PHARMACEUTICALS LIMITED, priority 2020, published 2024).

Read-outs that look alike come from different tables or passages of the source.

Chain of Plasma Kallikrein (P03952 391-638): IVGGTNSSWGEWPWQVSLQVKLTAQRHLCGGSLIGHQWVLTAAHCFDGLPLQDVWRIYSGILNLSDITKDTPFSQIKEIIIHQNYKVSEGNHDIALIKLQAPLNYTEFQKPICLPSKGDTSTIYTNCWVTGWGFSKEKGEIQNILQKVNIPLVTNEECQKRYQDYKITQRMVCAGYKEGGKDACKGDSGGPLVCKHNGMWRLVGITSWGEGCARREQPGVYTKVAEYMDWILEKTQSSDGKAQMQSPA
Chain of Plasma Kallikrein (P03952 20-390 partner): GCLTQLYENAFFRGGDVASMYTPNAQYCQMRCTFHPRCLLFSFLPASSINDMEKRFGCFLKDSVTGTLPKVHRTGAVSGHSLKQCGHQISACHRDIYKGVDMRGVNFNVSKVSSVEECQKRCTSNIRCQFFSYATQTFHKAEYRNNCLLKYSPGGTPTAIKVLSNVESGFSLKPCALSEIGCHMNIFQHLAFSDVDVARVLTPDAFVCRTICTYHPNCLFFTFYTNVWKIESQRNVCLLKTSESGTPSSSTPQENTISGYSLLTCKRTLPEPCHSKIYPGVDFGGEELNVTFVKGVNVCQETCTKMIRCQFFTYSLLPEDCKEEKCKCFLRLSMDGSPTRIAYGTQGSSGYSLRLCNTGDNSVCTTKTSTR
Chain of FXIa (P03951 388-625): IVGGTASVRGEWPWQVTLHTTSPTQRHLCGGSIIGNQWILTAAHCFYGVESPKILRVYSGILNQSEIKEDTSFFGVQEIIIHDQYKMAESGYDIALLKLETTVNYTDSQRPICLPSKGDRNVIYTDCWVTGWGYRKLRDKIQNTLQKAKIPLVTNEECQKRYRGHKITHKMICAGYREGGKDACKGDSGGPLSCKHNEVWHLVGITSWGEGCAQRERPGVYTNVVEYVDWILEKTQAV
Chain of FXIa (P03951 19-387 partner): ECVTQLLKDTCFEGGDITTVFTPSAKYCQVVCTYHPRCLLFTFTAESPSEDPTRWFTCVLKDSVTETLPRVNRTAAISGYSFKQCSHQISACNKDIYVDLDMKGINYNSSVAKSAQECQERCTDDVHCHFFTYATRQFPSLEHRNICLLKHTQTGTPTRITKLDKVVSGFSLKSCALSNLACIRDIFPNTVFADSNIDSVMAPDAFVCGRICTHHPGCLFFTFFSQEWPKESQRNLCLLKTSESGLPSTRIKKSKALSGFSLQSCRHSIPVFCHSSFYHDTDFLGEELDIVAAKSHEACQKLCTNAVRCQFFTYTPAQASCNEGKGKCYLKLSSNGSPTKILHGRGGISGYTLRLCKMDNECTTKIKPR
Chain of Human Factor XIIa (P00748 373-615): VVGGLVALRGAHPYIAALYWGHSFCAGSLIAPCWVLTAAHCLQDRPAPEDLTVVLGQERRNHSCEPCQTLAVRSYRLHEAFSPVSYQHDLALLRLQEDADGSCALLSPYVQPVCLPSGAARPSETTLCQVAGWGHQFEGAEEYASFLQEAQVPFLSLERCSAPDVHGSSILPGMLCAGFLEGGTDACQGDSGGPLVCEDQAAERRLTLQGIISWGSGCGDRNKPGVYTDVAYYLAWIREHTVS
Chain of FXa (P00742 235-488): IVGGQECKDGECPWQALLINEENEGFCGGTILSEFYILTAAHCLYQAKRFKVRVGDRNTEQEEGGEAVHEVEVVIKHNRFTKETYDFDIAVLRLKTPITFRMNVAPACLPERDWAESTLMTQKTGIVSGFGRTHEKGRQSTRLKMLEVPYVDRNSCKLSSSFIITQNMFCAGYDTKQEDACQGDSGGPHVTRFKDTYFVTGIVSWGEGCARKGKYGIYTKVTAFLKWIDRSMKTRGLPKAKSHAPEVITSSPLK
Chain of FXa (P00742 41-179 partner): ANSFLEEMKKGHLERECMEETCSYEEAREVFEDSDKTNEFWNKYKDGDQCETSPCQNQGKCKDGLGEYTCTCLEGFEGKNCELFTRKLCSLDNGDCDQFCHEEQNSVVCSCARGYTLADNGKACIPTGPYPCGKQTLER
Chain of KLK1 (P06870 25-262): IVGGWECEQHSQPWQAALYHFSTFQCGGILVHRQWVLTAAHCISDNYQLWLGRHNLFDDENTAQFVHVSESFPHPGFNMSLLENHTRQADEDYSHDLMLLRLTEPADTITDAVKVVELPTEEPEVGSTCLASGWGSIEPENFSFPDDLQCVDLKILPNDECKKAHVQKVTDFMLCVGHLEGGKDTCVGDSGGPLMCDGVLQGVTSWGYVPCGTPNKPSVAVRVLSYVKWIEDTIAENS
Chain of Plasmin (P00747 581-810): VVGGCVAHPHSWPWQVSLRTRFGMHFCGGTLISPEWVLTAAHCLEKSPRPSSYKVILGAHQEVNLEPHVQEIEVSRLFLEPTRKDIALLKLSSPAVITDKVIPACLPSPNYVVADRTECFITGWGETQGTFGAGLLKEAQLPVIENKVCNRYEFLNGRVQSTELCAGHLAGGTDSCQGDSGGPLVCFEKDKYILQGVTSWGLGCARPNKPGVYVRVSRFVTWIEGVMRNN
Chain of Plasmin (P00747 97-580 partner): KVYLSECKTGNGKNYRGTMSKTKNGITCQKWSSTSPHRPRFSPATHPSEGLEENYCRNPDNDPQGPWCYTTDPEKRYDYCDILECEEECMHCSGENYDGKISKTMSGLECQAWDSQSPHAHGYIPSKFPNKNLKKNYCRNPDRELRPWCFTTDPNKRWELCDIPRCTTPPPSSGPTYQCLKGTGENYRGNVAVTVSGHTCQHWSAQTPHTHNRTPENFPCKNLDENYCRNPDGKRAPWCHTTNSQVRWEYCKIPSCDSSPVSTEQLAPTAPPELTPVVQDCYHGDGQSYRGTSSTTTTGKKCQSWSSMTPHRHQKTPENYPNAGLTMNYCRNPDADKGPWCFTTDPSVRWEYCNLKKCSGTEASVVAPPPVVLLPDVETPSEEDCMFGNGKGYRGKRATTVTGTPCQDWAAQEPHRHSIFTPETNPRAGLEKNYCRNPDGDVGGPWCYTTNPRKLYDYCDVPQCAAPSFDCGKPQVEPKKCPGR

Broadly, the IC50 is the midpoint of a concentration-inhibition curve. In the case of `CN1CCC(Oc2ccc(CNc3cccc4c(N)nccc34)cc2)CC1` [Example 1002, 5-N-({4-[(1-methylpiperidin-4-yl)oxy]phenyl}methyl)isoquinoline-1,5-diamine], the 50% inhibitory concentration (IC50) against Thrombin was greater than 40 µM; at Trypsin it was greater than 40 µM; at Human Factor XIIa, 0.1 to 0.3 µM; against Plasmin it was greater than 40 µM; against FXa, 10 to 40 µM.
As usually defined, the half-life is the time needed for the level to fall by half in the phase considered. The low end stands for rapid decline, the high end for slow decline. Broadly, the bioavailability is dose-corrected exposure relative to a reference, in per cent. The molecule `CN1CCC(CNc2ccc(CNc3ccnc4[nH]c(Cl)cc34)cn2)CC1` [Example 1243, 2-chloro-N-((6-(((1-methylpiperidin-4-yl)methyl)amino)pyridin-3-yl)methyl)-1H-pyrrolo [2,3-b]pyridin-4-amine] returned a half-life in [1] of 8.76 h. Moreover, the bioavailability in [1] turned out to be 4.9%. The IC50 on Plasma Kallikrein is greater than 40 µM; against Thrombin it was greater than 40 µM; at Human Factor XIIa, 0.01 to 0.1 µM; on KLK1, 10 to 40 µM; on FXa it was 10 to 40 µM.
The molecule `Nc1nccc2c(NCc3ccc(OCC4CCn5ccnc5C4)nc3)cccc12` (single isomer, unassigned) [Example 1029, (R*)-N5-((6-((5,6,7,8-tetrahydroimidazo[1,2-a]pyridin-7-yl)methoxy)pyridin-3-yl)methyl)isoquinoline-1,5-diamine] had a half-life in series [1] of 6.18 h. Further, the bioavailability in [1] was found to be 9.7%. In addition, the IC50 lay in the range of 10 to 40 µM on Plasma Kallikrein; 10 to 40 µM against Thrombin; 0.1 to 0.3 µM at Human Factor XIIa; 3 to 10 µM on KLK1; 10 to 40 µM against FXa.
Consider `Cc1cc(N2CCn3c(nnc3C(F)(F)F)C2)ncc1CNc1cccc2c(N)nccc12` [Example 1282, N5-((4-Methyl-6-(3-(trifluoromethyl)-5,6-dihydro-[1,2,4]triazolo[4,3-a]pyrazin-7(8H)-yl)pyridin-3-yl)methyl)isoquinoline-1,5-diamine], for which the half-life in series [1] is 2.34 h. The bioavailability in series [1] was found to be 53.2%. In addition, the IC50 was greater than 40 µM at Plasma Kallikrein, 0.01 to 0.1 µM on Human Factor XIIa, 3 to 10 µM against KLK1 and greater than 4 µM on FXa.
For the molecule `CN1CCC(Oc2ccc(CNc3ccc4c(N)nccc4c3)cn2)CC1` [Example 1001, 6-N-({6-[(1-methylpiperidin-4-yl)oxy]pyridin-3-yl}methyl)isoquinoline-1,6-diamine], the IC50 on Plasma Kallikrein is 1 to 3 µM; against Thrombin it was 1 to 3 µM; on Trypsin, 10 to 40 µM; against Human Factor XIIa, 0.3 to 1 µM; against Plasmin, greater than 40 µM; on FXa it was 1 to 3 µM.
The molecule `Nc1nccc2c(NCc3ccc(N4CCn5c(nnc5C(F)F)C4)nc3)cccc12` [Example 1274, N5-((6-(3-(Difluoromethyl)-5,6-dihydro-[1,2,4]triazolo[4,3-a]pyrazin-7(8H)-yl)pyridin-3-yl)methyl)isoquinoline-1,5-diamine] displayed a half-life in [1] of 2.52 h. The bioavailability in series [1] is 32.1%. The IC50 was greater than 40 µM at Plasma Kallikrein; 10 to 40 µM at Thrombin; 0.3 to 1 µM at Human Factor XIIa; 1 to 3 µM on KLK1; greater than 40 µM at FXa.
Regarding `Cc1cc(N2CCn3c(nnc3C(F)(F)F)C2C)ncc1CNc1cccc2c(N)nccc12` (single isomer, unassigned) [Example 1305, (S*)-N5-((4-methyl-6-(8-methyl-3-(trifluoromethyl)-5,6-dihydro-[1,2,4]triazolo[4,3-a]pyrazin-7(8H)-yl)pyridin-3-yl)methyl)isoquinoline-1,5-diamine], in series [1], the half-life worked out at 4.04 h and the bioavailability stood at 79.4%. Moreover, the IC50 against Human Factor XIIa is 0.01 to 0.1 µM. This molecule gave an IC50 on KLK1 greater than 4 µM.
The molecule `CN1CCC(COc2cc(CNc3cccc4c(N)nccc34)ccn2)CC1` [Example 4260, N5-((2-((1-methylpiperidin-4-yl)methoxy)pyridin-4-yl)methyl)isoquinoline-1,5-diamine] returned a half-life in series [1] of 9.98 h. Also, in series [1], the bioavailability turned out to be 13.6%. Further, the IC50 was greater than 20 µM at FXIa; greater than 20 µM at Plasma Kallikrein; greater than 20 µM on Thrombin; 0.1 to 0.3 µM on Human Factor XIIa; greater than 20 µM on FXa.
The molecule `CN1CCC(OCc2ccc(CNc3ccc4c(N)nccc4c3)c(F)c2)CC1` [Example 2191, N6-(2-fluoro-4-(((1-methylpiperidin-4-yl)oxy)methyl)benzyl)isoquinoline-1,6-diamine] gave a half-life in series [1] of 9.02 h. For the same molecule, the bioavailability in series [1] was 22.8%. Also, the IC50 was greater than 40 µM against FXIa; 10 to 40 µM on Plasma Kallikrein; greater than 40 µM against Thrombin; 0.1 to 0.3 µM on Human Factor XIIa; 10 to 40 µM against FXa.
On to `CN1CCC(COc2cc(CNc3cccc4[nH]nc(Cl)c34)ccn2)CC1` [Example 4454, 3-chloro-N-((2-((1-methylpiperidin-4-yl)methoxy)pyridin-4-yl)methyl)-1H-indazol-4-amine], for which the 50% inhibitory concentration (IC50) was greater than 40 µM on FXIa; greater than 100 µM at Plasma Kallikrein; greater than 40 µM on Thrombin; greater than 40 µM on Trypsin; 1 to 3 µM on KLK1; greater than 40 µM at Plasmin. This molecule had an IC50 on FXa greater than 40 µM.
Turning to `CN1CCC(Oc2cc(CNc3ccc4c(N)nccc4c3)ccn2)CC1` [Example 4259, N6-((2-((1-methylpiperidin-4-yl)oxy)pyridin-4-yl)methyl)isoquinoline-1,6-diamine], the IC50 at Plasma Kallikrein is 10 to 40 µM; on Thrombin, 1 to 3 µM; against Human Factor XIIa it was 0.3 to 1 µM; on KLK1 it was 10 to 40 µM; on Plasmin it was greater than 40 µM; at FXa it was 3 to 10 µM.
`CN1CCC(OCc2ccc(CNc3cccc4c(N)nccc34)c(F)c2)CC1` [Example 2197, N5-(2-fluoro-4-(((1-methylpiperidin-4-yl)oxy)methyl)benzyl)isoquinoline-1,5-diamine]: the bioavailability in series [1] (5 mg/kg) worked out at 26.6%. In addition, the half-life in series [1] turned out to be 6.87 h. The concentration for half-maximal inhibition (IC50) at FXIa was greater than 20 µM; at Plasma Kallikrein it was greater than 20 µM; on Thrombin, greater than 20 µM; on Human Factor XIIa it was 0.01 to 0.1 µM; on FXa, greater than 20 µM.
Take `FC(F)c1nnc2n1CCN(c1ccc(CNc3ccnc4[nH]c(Cl)cc34)cn1)C2` [Example 1277, 2-chloro-N-((6-(3-(difluoromethyl)-5,6-dihydro-[1,2,4]triazolo[4,3-a]pyrazin-7(8H)-yl)pyridin-3-yl)methyl)-1H-pyrrolo[2,3-b]pyridin-4-amine]: the half-life in series [1] turned out to be 1.35 h. For the same molecule, in series [1], the bioavailability turned out to be 25%. The IC50 on Plasma Kallikrein was greater than 40 µM; against Thrombin it was 10 to 40 µM; against Human Factor XIIa, 0.3 to 1 µM; at KLK1, 10 to 40 µM; on FXa, greater than 40 µM.
The molecule `CN1CCC(OCc2ccc(CNc3cccc4c(N)nccc34)cc2)CC1` [Example 2186, N5-(4-(((1-methylpiperidin-4-yl)oxy)methyl)benzyl)isoquinoline-1,5-diamine] gave a half-life in series [1] of 4.39 h. The bioavailability in [1] was 15.8%. Further, the IC50 against FXIa was greater than 40 µM; at Plasma Kallikrein, 10 to 40 µM; against Thrombin it was greater than 40 µM; against Human Factor XIIa, 0.1 to 0.3 µM; against FXa, 10 to 40 µM.
